test: Cytotoxicity against mouse P388 cells assessed as reduction in cell viability measured after 72 hrs by XTT assay; assay type: functional, cell-based; conditions: P388, 72 h

| Compound | IC50 [µM] |
| --- | --- |
| CC1=C[C@@H](O)[C@H]2[C@](O)(CC[C@]34O[C@]23[C@@H](O)c2cccc(O[C@]35CC[C@]6(O)C[C@@](C)(O)C=C[C@@H]6[C@]3(O)[C@@H](O)c3cccc(O)c3C5=O)c2C4=O)C1 | 10.7 |
| Cc1ccc2c(c1)CC[C@]1(S[C@]34CCc5cc(C)ccc5[C@]3(O)[C@@H](O)c3cccc(O)c3C4=O)C(=O)c3c(O)cccc3[C@H](O)[C@@]21O | 6.1 |
| CC1=C[C@@H](O)[C@H]2[C@](O)(CC[C@]3(Oc4cccc5c4C(=O)[C@]46CC[C@]7(O)CC(C)=C[C@@H](O)[C@@H]7[C@]4(O6)[C@H]5O)C(=O)c4c(O)cccc4[C@H](O)[C@@]23O)C1 | 9.7 |
| C[C@]1(O)C=C[C@H]2[C@](O)(CC[C@]34O[C@]23[C@@H](O)c2cccc(O)c2C4=O)C1 | 1.8 |
| CC1=C[C@@H](O)[C@H]2[C@](O)(CC[C@]34O[C@]23[C@@H](O)c2cccc(O)c2C4=O)C1 | 1.7 |
| C[C@@]1(O)C=C[C@H]2[C@](O)(CC[C@]34O[C@]23[C@@H](O)c2cccc(O)c2C4=O)C1 | 7.6 |
| CC1=C[C@@H]2O[C@]34CC[C@](O)(C1)[C@H]2[C@]3(O)[C@@H](O)c1cccc(O)c1C4=O | 28.6 |
| CC1=CC(=O)C2=C3[C@@H](O)c4cccc(O)c4C(=O)[C@]3(O)CC[C@]2(O)C1 | 12 |
| CC1=C[C@@H](O)[C@@H]2C(=O)[C@@]3(CC[C@]2(O)C1)C(=O)c1c(O)cccc1[C@H]3O | 53.3 |
